Row | SMILES | melting point [°C]
1 | CC1=C(Br)C=CC(Cl)(C=NO)C1 (stereo not drawn) | 77 to 78
2 | CC(Cl)C(=O)c1ncc(Cl)cc1F (stereo not drawn) | 29 to 32
3 | N#Cc1cccc(C2=Nc3ccc(C#Cc4ccc(F)cc4F)cc3NC(=O)C2)c1 | 240 to 246
4 | COC(=O)CN1CCN(c2cccc(-c3nc4cc(OC)cc(OC)c4c(=O)[nH]3)n2)CC1 | 176 to 177
5 | CC1(C)O[C@@]23CC(=O)CC[C@@]2(C)CC[C@@H]1C3 | 60 to 61
6 | CC(C)(C)NC(=S)N1CCN(c2cnccn2)CC1 | 153 to 156
7 | CC1NC(=O)CC2(C)CC1c1ccccc1O2 (stereo not drawn) | 164
8 | CCc1cccc(C(=O)c2nc(OC)cc(OC)n2)c1N | 122 to 123
9 | CSc1ccc(CN2CC(C)(C)C(Oc3ccc(C#N)c(C(F)(F)F)c3)C2=O)cc1 (stereo not drawn) | 44.1 to 44.8
10 | CCn1ncc2c(NCC3CCCCC3)c3ccc([N+](=O)[O-])cc3nc21 | 205 to 207
11 | COc1ccc(C2=NN(Cn3nnc4ccccc43)C(=O)[C@H]3CCCC[C@@H]23)cc1OC (relative stereo) | 173 to 178
12 | CCOC(=O)c1c(NC(=O)NCC(=O)OC)sc(C)c1C | 151
13 | CNC(=O)[C@H]1S[C@@H](n2cnc3c(NC)nc(Cl)nc32)[C@H](O)[C@@H]1O | 130 to 141
14 | Cc1ccc2nc(-c3ccccc3F)oc2n1 | 136 to 137
15 | CCC1(CCCCCl)C(=O)Nc2ccc(C)cc21 (stereo not drawn) | 79 to 80
16 | CC(=O)Cc1ccc(OCC2CO2)cc1 (stereo not drawn) | 43
17 | COc1c(C#N)c2cc(Cl)c(Cl)cc2n1C1OC(CO)C(O)C1O (stereo not drawn) | 245 to 246
18 | COc1ccc(N2CCN(c3c(C)c(C)c4c(c3C)C(N3CCN(C)CC3)C(C)(C)O4)CC2)cc1 (stereo not drawn) | 94 to 96
19 | CCNSc1ccc([N+](=O)[O-])cc1C(Cl)(Cl)Cl | 80
20 | COC(=O)c1cc(=O)c2cc(OC)cc(N)c2o1 | 145 to 147
21 | COc1cc(N)c2nccc(C)c2c1Oc1ccc(Cl)cc1Cl | 115 to 118
22 | CCOC(=O)C1=C(C)NC(N=CN(C)C)=C(C(=O)OCC)C1c1cccc(OC)c1 (stereo not drawn) | 136

Row | SMILES | melting point [°C]
23 | C[C@@H]1OC(=O)[C@H]2C[C@H]3CCCC[C@@H]3[C@@H](O)[C@@H]12 | 195 to 196
24 | COC(=O)C(NC(=O)C1CCCS1)C(C)C (stereo not drawn) | 55 to 65
25 | C=CCc1cc(OC)c(OC)cc1Cc1cnc(N)nc1N | 170 to 171
26 | C=C(C)C[C@@H]1C(=O)N(c2ccc(C#N)c(Cl)c2)[C@@H](C)[C@H]1O | 110 to 112
27 | COC(=O)Nc1nc(C(=O)C(=O)OC)ns1 | 112 to 117
28 | Cc1ccccc1-n1c(-c2cc(-c3ccc(Cl)cc3)c(N3CCOCC3)s2)nc2ccccc2c1=O | 186 to 189
29 | O=C1Nc2c(O)cccc2C(=O)N2CCCC12 (stereo not drawn) | 280 to 282
30 | Cc1ccnc([N+](=O)[O-])c1O | 87 to 88
31 | CCc1cc2c(O)cc(=O)oc2cc1OC | 174 to 175
32 | N#Cc1cnc2cc(F)ccc2c1O | > 250
33 | CC(C)(C)OC(=O)Nc1cc(N2CCSCC2)c(I)cc1[N+](=O)[O-] | 132 to 134
34 | CCCCCCCCCCCCc1nnn(C(CCCC)C(=O)Nc2c(OC)cc(OC)cc2OC)n1 (stereo not drawn) | 152 to 154
35 | COc1cc2ncnc(Nc3cccc(Br)c3)c2cc1OCC1CO1 (stereo not drawn) | 230 to 245
36 | COc1cc(COc2cc(CCc3ccccn3)n(-c3ccccc3)n2)ccc1OCc1nc(-c2ccco2)oc1C | 104 to 105
37 | C[C@@H]1C[C@@H]2c3cccc4c3N(CCNC4)[C@@H]2C1 | 155 to 158
38 | O=C(NC1N=C(c2ccccc2)c2ccccc2NC1=O)c1ccc2ccccc2c1 (racemic) | 293 to 294
39 | CC(O)CSc1cc(C(C)(C)C)c(O)c(C(C)(C)C)c1 (stereo not drawn) | 82
40 | CC(=O)n1c(C)cc(=O)n(-c2cc(C(=O)OC(C)C)c(Cl)cc2F)c1=O | 168 to 170
41 | CCc1c([N+](=O)[O-])c(C(N)=O)nn1C1CN(CC)C1 | 177 to 179
42 | NC1CCN(CC23CC(c4ccccc42)c2ccccc23)CC1 | 116 to 119
43 | CC1NC(=O)NN=C1c1ccc(N)c(Cl)c1 (stereo not drawn) | 229 to 231

Other lines, results leading:

Row | melting point [°C] | SMILES
44 | 88 to 93 | CCCCc1ccc2oc(=O)c(=O)oc2c1
45 | 79 to 80 | O=Cc1cc(Br)ccc1OCCc1ccccc1
46 | 260 to 264 | O=C(O)c1ccccc1-c1cc(-c2ccc(O)cc2)[nH]n1
47 | 174 | CC(C)c1ccc(CCC(O)(P(=O)(O)O)P(=O)(O)O)cc1
48 | 232 to 234 | Cc1ccccc1-c1c(NC(=O)Nc2ccc(F)cc2F)c(=O)oc2ccc(C)c(C)c12
49 | 158 to 159 | Cc1oc(-c2ccccc2)nc1/C=C/c1ccc(C=O)cc1
50 | 139 to 140 | C1=CN(Cc2ccccc2)CCC1c1cc2ccccc2o1 (stereo not drawn)
51 | 119 | COC(=O)CCc1cc2nc(C(F)(F)F)ccc2n1S(=O)(=O)c1ccccc1
52 | 198 to 200 | COc1ccc(C(=O)O)c(COc2ccc(CC(=O)O)cc2)c1
53 | 165 | Clc1ccc(OCC2COC(CBr)(c3ccc(Cl)cc3)O2)cc1 (stereo not drawn)
54 | 97 | CCc1ccc2c(c1)C(O)Cc1ccc(F)cc1S2 (stereo not drawn)
55 | 146 to 149 | O=C(NC(CCl)c1ccc(-c2ccc(S(=O)(=O)C(F)F)cc2)cc1)c1c(F)cccc1F (stereo not drawn)
56 | 148 | COC(=O)c1c2ccccc2nc2cc(Cl)ccc12
57 | 143 to 144 | COc1ccc(N2CC(CN3CCC(O)(c4ccc(Cl)cc4)CC3)OC2=O)cc1 (stereo not drawn)
58 | 167 to 169 | O=C(C1CC1)N1CCC2C1CCCC2(O)c1ccc(Cl)cc1 (stereo not drawn)
59 | 131 to 132 | CSc1ncc(CNc2ccccc2Cl)c(Nc2ccccc2)n1
60 | 75 to 76 | CCOC(=O)C(=NNc1ccccc1)C(C)=O
61 | 155 | Cc1cccc(C)c1NC(=O)c1cc(C)n(C)n1
62 | 57 to 59 | COC(=O)C(Cl)Cc1ccc(O)cc1 (stereo not drawn)
63 | 228 to 230 | N#CC(C(=O)Nc1ccccc1)C(=O)c1nn(-c2ccccc2)c2c1CSc1ccccc1-2 (stereo not drawn)

Row | melting point [°C] | SMILES
64 | 105 to 106 | COc1ccc(C(=O)N2CCN(CCc3ccc(Cl)cc3)CC2)cc1
65 | 182 to 184 | O=C(O)C(=O)c1ccc(OCC(=O)N2CCOCC2)cc1
66 | > 250 | CC(C)Cn1cnc2c(N)nc3ccc(-c4ccc(C(C)(C)C)cc4)cc3c21
67 | 154 to 156 | COC(=O)c1cc(N)c(Oc2ccccc2)c(N2CCCC2)c1
68 | 72 to 73 | CC(C)Oc1ccc(CCCCC2SC(=O)NC2=O)cc1 (stereo not drawn)
69 | 135 to 137 | CCCOc1ccc(Br)cc1CN(CC)c1ccc(C(=O)O)nn1
70 | 175 | CC(=O)CC(=O)Nc1ccc(Cn2ccnc2)cc1
71 | 88 to 90 | COC(=O)C(C)=CC(C)=Cc1cc([N+](=O)[O-])ccc1Cl
72 | 54 | COc1cccc(CCl)c1SCc1ccccc1
73 | 241 to 242 | O=c1nc(-c2cnccn2)sc2ccccc12
74 | 96 | CCCCNc1nc2ccccc2n2ncc(C(=O)OCC)c12
75 | 167 | Cc1cccc(NC(=O)NCC(=O)N(CC(=O)N2CCCc3ccccc32)c2ccccc2)c1
76 | 169 to 170 | NC(=O)c1cccc(-c2ccc(Cl)c3cc(Cc4cc(F)cc(Cl)c4)sc23)c1
77 | 109 to 110 | CCCCC(=O)N(CCOCc1ccccc1)Cc1ccc(-c2ccccc2-c2nnn[nH]2)cc1
78 | 160 to 162 | CC(C)(C)C(=O)c1ccc(C(=O)O)cc1
79 | 222 | CCN(CC)C(=O)Nc1ccc(S(=O)(=O)n2c(=O)n(-c3ccccc3Cl)c3cc(Cl)ccc32)cc1
80 | 86 to 88 | CCOC(=O)CN1C(=O)[C@@H](NC(=O)OC(C)(C)C)CC(=O)c2ccccc21
81 | 112 to 116 | COC(=O)CCSc1scnc1C(=O)O
82 | 200 to 201 | CN(C(=O)Nc1ccc(F)cc1F)c1cnc2ccc(Cl)cc2c1-c1ccccc1
83 | 207 | CC(C)(C)c1cc(CCc2ccccc2NC(=O)Nc2ccccc2)cc(C(C)(C)C)c1O

Row | melting point [°C] | SMILES
84 | 236 to 237 | CC(=O)NC(=Cc1ccc(OC(C)=O)cc1)C(=O)O
85 | 248 to 250 | O=c1ccc(S(=O)(=O)c2cc3cccc(Cl)c3[nH]2)n[nH]1
86 | 199 to 201 | CC(C)COc1ccc2c(c1)c(=O)n(CCC(=O)O)c(=O)n2Cc1c[nH]c2ccccc12
87 | 273 to 278 | CCOC(=O)c1ncc2[nH]c3ccc(NC(C)=O)cc3c2c1C
88 | 127 to 128 | CCc1noc(-c2ncn(-c3cccnc3)c2C)n1
89 | 44 to 51 | CC1COC(c2ccccc2)(c2ccc(Cl)nc2)O1 (stereo not drawn)
90 | 160 to 161 | COc1ccc(Nc2ccc(C)cc2)c(C(=O)O)c1
91 | 103 to 106 | CC(=NOCCOS(C)(=O)=O)c1ccc(-c2ccc(F)cc2)cc1
92 | 275 to 276 | COc1ccc(NC=C(C#N)C(=O)Nc2cc(OC)c(Cl)cc2Cl)cc1F
93 | 142 | Cc1nc(N2CCN(C(=O)c3ccco3)CC2)nnc1-c1ccccc1
94 | 114 to 115 | O=C(Nc1c(OCCN(Cc2ccccc2)C(=O)C(F)(F)F)cccc1[N+](=O)[O-])C(F)(F)F
95 | 102 to 128 | CN(CC(=O)C(Cc1c[nH]c2ccccc12)NC(=O)c1ccccc1)C(=O)N1CCCC1C(=O)O (stereo not drawn)
96 | 115 to 118 | COc1ccc(S(=O)(=O)NC(=N)CCN2CCOC2=O)cc1
97 | 88 to 89 | O=C(c1nc2ccc(O)cc2[nH]1)N1CCC(=Cc2ccc(Cl)cc2)CC1
98 | 203 | Cc1ccccc1-c1nc(N)ncc1-c1ccc(=O)n(C(C)C)n1
99 | 85 to 87 | OCCc1c2ccccc2cc2ccccc12
100 | 213 | N=C(N)Nc1c(Cl)cccc1Cl
101 | 150 to 152 | CCc1cc(-c2ccc(Cl)cc2)nc2c(I)cnn12
102 | 220 to 222 | Cc1c(-c2ccc(O)cc2)sc(C#N)c1-c1cccc(O)c1
103 | 138 | CN(C(=O)Cc1ccccc1)c1cccc(-c2ccc(CC3SC(=O)NC3=O)cc2)c1 (stereo not drawn)

— a melting point compilation (Tetko et al.; mined from patent text by program, amines drawn as free bases though some values may be those of a salt)
